Measured values reported in paper PMC4833932, “Cytotoxicity and cell cycle arrest induced by andrographolide lead to programmed cell death of MDA-MB-231 breast cancer cell line” (Journal of Biomedical Science, 2016).

Assays:
Format in all cases: cell-based, human
MDA-MB-231 cells = assay: Cell cycle analysis by flow cytometry (PI); conditions: 30 μM
Procedure: In order to study the stages of the cell cycle affected by andrographolide, flow cytometry analysis of cell cycle was carried out. Cells were seeded in a 6-well tissue culture plate at an initial density of 2.5 × 10^5 cells per well in the presence of andrographolide (30 μM) or vehicle (DMSO) for 24, 36 and 48 h. The treatment medium and the attached cells were collected after trypsinisation and centrifugation at 1000 × g. Cells were then fixed with 70 % ethanol at 4 °C overnight. The resulted pellets were resuspended in PBS having 100 μg/ml RNAse A (Sigma-Aldrich, USA) and 50 μg/ml PI, and then kept in dark at 25 °C for 30 min. Cell cycle phase distribution were monitored on the BD FACSVerse™ (Becton Dickinson, USA) and analyzed by using FACSuite™ software. A total of 10,000 events were recorded.

Apaf-1 = assay: Western blot, protein expression in MDA-MB-231 cells; conditions: 30 μM, 48 h
Procedure: (§1) Cells from control regime and andrographolide treatment (30 μM, 48 h) were used for Western blot. After centrifugation, cell pellets were lysed in RIPA buffer containing protease and phosphatase inhibitors (Roche, Germany). Each cell lysate was used for protein assay with Bio-Rad protein assay kit (Bio-Rad, USA). A protein sample of 50 μg was electrophoresed in a 12 % SDS-PAGE. Proteins were electro-transferred from the gel onto a nitrocellulose membrane (Amersham Biosciences, UK). After incubating with blocking buffer containing 5 % nonfat milk for 1 h, the membranes were probed with the primary antibody specific for Bcl-xL (1:750 dilution), Bcl-2 (1:1000), Bax (1:1000), cytochrome c (1:800) and Apaf-1 (1:500) at 4 °C. Membrane was then washed thrice with TBST (Tris buffered saline having 0.1 % Tween-20, pH 7.5), exposed to horseradish peroxidase conjugated secondary antibody (1:2500) and was then kept at 25 °C for 1 h. The membrane was then finally washed thrice with TBST. The protein bands were visualized by incubating the membrane with diaminobenzidine/hydrogen peroxide (Sigma-Aldrich) for color reaction. β-Actin and COX IV were also detected as loading controls.

Bax = assay: as above; conditions: 30 μM, 48 h
Procedure: as §1

Bcl-2 = assay: as above; conditions: 30 μM, 48 h
Procedure: as §1

Bcl-xL = assay: as above; conditions: 30 μM, 48 h
Procedure: as §1

cytochrome c = assay: Western blot of cytosolic and mitochondrial fractions of MDA-MB-231 cells; conditions: 30 μM, 48 h
Procedure: Cells were treated with andrographolide (30 μM) for 48 h and mitochondrial as well as cytosolic fractions were obtained with a mitochondria isolation kit (Pierce, Rockford, USA). The mitochondrial pellet was re-suspended in sample buffer for SDS-gel electrophoresis and analyzed by Western blot using cytochrome c antibody. COX IV and β-actin were used as loading controls for the mitochondrial fraction and cytosolic fraction respectively. Cytosolic fractions were also Western blotted for studying cytochrome c expression.
Cells from control regime and andrographolide treatment (30 μM, 48 h) were used for Western blot. After centrifugation, cell pellets were lysed in RIPA buffer containing protease and phosphatase inhibitors (Roche, Germany). Each cell lysate was used for protein assay with Bio-Rad protein assay kit (Bio-Rad, USA). A protein sample of 50 μg was electrophoresed in a 12 % SDS-PAGE. Proteins were electro-transferred from the gel onto a nitrocellulose membrane (Amersham Biosciences, UK). […] The protein bands were visualized by incubating the membrane with diaminobenzidine/hydrogen peroxide (Sigma-Aldrich) for color reaction. β-Actin and COX IV were also detected as loading controls.

MDA-MB-231 = assay: Cellular ROS level (DCF-DA); conditions: 15, 30, 45 and 60 μM, 12-48 h
Procedure: To estimate intracellular ROS level, MDA-MB-231 (2 × 10^4 cells per well) were treated with andrographolide (15, 30, 45 and 60 μM) for 12–48 h and were harvested by centrifugation for the assay. The cell suspension (200 μl, containing 1 × 10^5 cells per ml) was mixed to PBS (800 μl) and 10 μM 2ʹ, 7ʹ-dichlorofluorescein diacetate (DCF-DA) and kept at 37 °C for 30 min in the dark. 25 μM H2O2 was used for positive control. The intracellular ROS level was measured by determining the production of H2O2 using a spectrofluorometer (excitation, 488 nm; emission, 515 nm). Another set of experiment was similarly performed where MDA-MB-231 cells were pre-treated with 3 mM NAC for 1 h followed by without or with andrographolide (30 μM) treatment. Same experiment was also performed using MCF-7 cells.

caspase-3 = assay: Caspase activity assay (fluorometric, DEVD-AFC) in MDA-MB-231 cells; conditions: 0-60 μM, 24 h
Procedure: MDA-MB-231 cells (1 × 10^5 cells per ml) were incubated with different concentrations of andrographolide (0, 15, 30, 45 and 60 μM) for 24 h and then centrifuged to detect caspase-3 and caspase-9 activation using caspase fluoremetric protease assay kit following manufacturer’s instructions. Briefly, cells were lysed in RIPA buffer supplemented with protease inhibitor cocktail and 10 μl lysate were diluted with 10 μl substrate buffer (1:1) containing 100 μM each of fluorogenic substrate, DEVD-AFC and LEHD-AFC for caspase-3 and caspase-9 respectively, and was then incubated for 90 min at 37 °C. Reactions were stopped using 0.2 mM sodium phosphate buffer (pH 7.5) and fluorescence was quantified by a spectrofluorometer (excitation, 405 nm; emission, 505 nm). Experiment was also performed using MCF-7 cells.

caspase-7 = assay: Caspase activity assay in MCF-7 cells; conditions: MCF-7, 0-80 μM, 24 h

SMILES: C=C1CC[C@@H]2[C@](C)(CO)[C@H](O)CC[C@@]2(C)[C@@H]1C/C=C1/C(=O)OC[C@H]1O [andrographolide]
- decrease in the cell number at the G1/G0 phase over the control (MDA-MB-231 cells; 24 h): 24.75 ± 0.5%
- increase in S population over the untreated control (MDA-MB-231 cells; 24 h): 9.91 ± 0.3%
- decrease in the cell number at the G1/G0 phase over the control (MDA-MB-231 cells; 36 h): 28.86 ± 0.7%
- increase in S population over the untreated control (MDA-MB-231 cells; 36 h): 14.21 ± 0.2%
- decrease in the cell number at the G1/G0 phase over the control (MDA-MB-231 cells; 48 h): 33.53 ± 1.1%
- Apaf-1 expression, increase (Apaf-1): 1.49 ± 0.17 fold
- Bax expression, up-regulated (Bax): 2.39 ± 0.45 fold
- Bcl-2 expression, down regulated (Bcl-2): 1.96 ± 0.14 fold
- Bcl-xL expression, down-regulated compared to control (Bcl-xL): 1.47 ± 0.06 fold
- cytosolic cytochrome c expression, increase (cytochrome c; cytosolic fraction): 7.13 ± 1.17 fold
- cytochrome c in the mitochondrial fraction, decrease (cytochrome c; mitochondrial fraction): 1.92 ± 0.05 fold
- ROS generation (DCF fluorescence) (MDA-MB-231): increasing ROS generation with longer exposure and elevated dose
- activation of caspase-3 (caspase-3): gradual dose-dependent activation
- caspase-7 (effector caspase) activation (caspase-7): activation in a dose-dependent manner
